In test [1] the target is hAM1 receptor (Homo sapiens, UniProt O60895+Q16602). Briefly: cAMP assay for in vitro receptor activation, hAM1-R. The class given is cell-based. Conditions: cAMP assay, hAM1 receptor; read-out: hAM1R EC50. In a few lines: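 cAMP accumulation was measured in a monoclonal cell line stably overexpressing the hAM1 receptor. Frozen aliquots were thawed and plated at 8000 cells/well in DPBS containing 0.05% casein and 0.5 mM IBMX.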

The target of test [2] is T1, hAMY3 receptor (Homo sapiens, UniProt O60896+P30988).
T1 sequence (P30988 25-474): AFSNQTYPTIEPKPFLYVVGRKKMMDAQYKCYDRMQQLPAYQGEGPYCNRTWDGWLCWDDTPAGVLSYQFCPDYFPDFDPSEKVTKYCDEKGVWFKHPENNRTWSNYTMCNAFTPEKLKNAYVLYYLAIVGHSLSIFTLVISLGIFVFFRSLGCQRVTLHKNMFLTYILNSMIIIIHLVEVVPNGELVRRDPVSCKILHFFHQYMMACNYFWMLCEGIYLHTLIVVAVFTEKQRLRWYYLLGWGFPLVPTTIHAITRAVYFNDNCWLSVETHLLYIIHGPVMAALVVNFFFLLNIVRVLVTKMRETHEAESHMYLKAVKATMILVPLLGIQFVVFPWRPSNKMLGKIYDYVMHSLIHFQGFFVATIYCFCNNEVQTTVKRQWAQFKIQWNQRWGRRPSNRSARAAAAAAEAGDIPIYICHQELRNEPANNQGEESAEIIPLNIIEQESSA
T1 sequence (O60896 24-148 partner): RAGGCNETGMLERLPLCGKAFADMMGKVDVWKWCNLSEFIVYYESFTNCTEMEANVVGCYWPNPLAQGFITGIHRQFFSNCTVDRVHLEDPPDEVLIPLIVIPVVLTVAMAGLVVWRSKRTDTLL
Briefly: cAMP assay for in vitro receptor activation, hAMY3-R. The class given is cell-based. Conditions: cAMP assay, hAMY3 receptor; read-out: hAMY3R EC50. In a few lines:
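Thawed cells from a sub-cloned monoclonal hAMY3-overexpressing line are plated in DPBS containing 0.05% casein and 0.5 mM IBMX. Test compounds are added immediately at graded doses for 30 min at room temperature. Reagents for cAMP detection are then added, and TR-FRET is recorded after one hour.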

Numbered stars: 1 amine (or outer) side, 2 acyl side, 3 side chain; on linkers, the order of the positions; unused ones are H or OH. Bridge positions count the residues as written; N and C are the ends. Square brackets hold non-standard residues; d marks the D form. Peptide text beside a SMILES is read from it. * marks the point of attachment. C20 diacid = O=C(O)CCCCCCCCCCCCCCCCCCC(=O)*; γGlu = O=C(O)[C@H](CCC(=O)[*:2])N[*:1]; Hyp = O=C(O)[C@@H]1C[C@@H](O)CN1; Cit = NC(=O)NCCC[C@H](N)C(=O)O A value given as a limit tells only on which side of the number the result lay.

In general, EC50 refers to the concentration at which the effect is half-maximal.

Chain of hAM1 receptor (Q16602 23-461): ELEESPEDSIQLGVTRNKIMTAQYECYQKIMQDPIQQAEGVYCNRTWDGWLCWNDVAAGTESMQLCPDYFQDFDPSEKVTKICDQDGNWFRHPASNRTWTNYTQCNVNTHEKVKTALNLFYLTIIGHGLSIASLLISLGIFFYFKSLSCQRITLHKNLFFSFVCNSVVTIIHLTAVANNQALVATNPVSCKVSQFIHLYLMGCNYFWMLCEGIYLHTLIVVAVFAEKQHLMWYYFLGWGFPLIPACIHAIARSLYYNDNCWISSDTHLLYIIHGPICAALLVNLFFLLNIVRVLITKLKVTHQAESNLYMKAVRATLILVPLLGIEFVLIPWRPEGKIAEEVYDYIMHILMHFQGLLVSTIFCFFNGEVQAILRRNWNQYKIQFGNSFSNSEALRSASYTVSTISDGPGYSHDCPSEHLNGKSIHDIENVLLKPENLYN
Chain of hAM1 receptor (O60895 43-175 partner): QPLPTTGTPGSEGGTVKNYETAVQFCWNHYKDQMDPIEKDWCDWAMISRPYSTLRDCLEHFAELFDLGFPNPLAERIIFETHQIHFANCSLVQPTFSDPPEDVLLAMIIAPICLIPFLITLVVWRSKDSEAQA

With `CC[C@H](C)[C@H](NC(=O)[C@H](CCC(N)=O)NC(=O)[C@H](CCC(=O)O)NC(=O)[C@H](C)NC(=O)[C@H](CC(C)C)NC(=O)[C@H](CCCNC(N)=O)NC(=O)[C@H](CCC(N)=O)NC(=O)[C@@H](NC(=O)[C@@H](NC(=O)[C@@H]1CSSC[C@H](NC(=O)[C@H](CCCCN)NC(=O)CC[C@H](NC(=O)CCCCCCCCCCCCCCCCCCC(=O)O)C(=O)O)C(=O)N[C@@H](CC(N)=O)C(=O)N[C@@H]([C@@H](C)O)C(=O)N[C@@H](C)C(=O)N[C@@H]([C@@H](C)O)C(=O)N1)[C@@H](C)O)C(C)C)C(=O)N[C@@H](C)C(=O)N[C@@H](CCC(N)=O)C(=O)N[C@@H](Cc1ccccc1)C(=O)N[C@H](C(=O)N[C@@H](CC(=O)O)C(=O)N[C@@H](CCCCN)C(=O)N[C@@H](CC(=O)O)C(=O)N[C@@H](CCCCN)C(=O)N[C@@H](CC(=O)O)C(=O)N[C@@H](CC(N)=O)C(=O)N[C@H](C(=O)N[C@@H](C)C(=O)N1CCC[C@H]1C(=O)N1CCC[C@H]1C(=O)N[C@H](C(=O)N[C@@H](CC(N)=O)C(=O)N[C@H](C(=O)NCC(=O)N[C@@H](CO)C(=O)N[C@@H](CC(N)=O)C(=O)NCC(=O)N1C[C@H](O)C[C@H]1C(N)=O)C(C)C)[C@@H](C)O)C(C)C)[C@@H](C)O` [compound 153] ({C20 diacid-γGlu}-KCNTATCTVQ[Cit]LAEQIAQFTDKDKDNVAPPTNVGSNG[Hyp]-NH2; disulfide 2-7), the values for the EC50 in test [1] and in test [2] were more than 5000 nM and 0.041 nM, respectively.

As to `CC[C@H](C)[C@H](NC(=O)[C@H](CCC(N)=O)NC(=O)[C@H](Cc1c[nH]cn1)NC(=O)[C@H](C)NC(=O)[C@H](CC(C)C)NC(=O)[C@H](CCCNC(=N)N)NC(=O)[C@H](CCC(N)=O)NC(=O)[C@@H](NC(=O)[C@@H](NC(=O)[C@@H]1CSSC[C@H](NC(=O)CN)C(=O)N[C@@H](CCCNC(=N)N)C(=O)N[C@@H](Cc2ccccc2)C(=O)NCC(=O)N[C@@H]([C@@H](C)O)C(=O)N1)[C@@H](C)O)C(C)C)C(=O)N[C@@H](Cc1ccc(O)cc1)C(=O)N[C@@H](CCC(N)=O)C(=O)N[C@@H](Cc1ccccc1)C(=O)N[C@H](C(=O)N[C@@H](CC(=O)O)C(=O)N[C@@H](CCCCN)C(=O)N[C@@H](CC(=O)O)C(=O)N[C@@H](CCCCN)C(=O)N[C@@H](CC(=O)O)C(=O)N[C@@H](CC(N)=O)C(=O)N[C@H](C(=O)N[C@@H](C)C(=O)N1CCC[C@H]1C(=O)N[C@@H](CCCNC(=N)N)C(=O)N[C@H](C(=O)N[C@@H](CCCCN)C(=O)N[C@H](C(=O)N[C@@H](CO)C(=O)N1CCC[C@H]1C(=O)N[C@@H](CCC(N)=O)C(=O)NCC(=O)N[C@@H](Cc1ccc(O)cc1)C(N)=O)C(C)C)[C@@H](C)O)C(C)C)[C@@H](C)O` [compound 155] (H-GCRFGTCTVQRLAHQIYQFTDKDKDNVAPRTKVSPQGY-NH2; disulfide 2-7; N-terminus assumed), the concentration giving a half-maximal response (EC50) came out at 116 nM in test [1] and 0.045 nM in test [2].

In the case of `CC[C@H](C)[C@H](NC(=O)[C@H](CCC(N)=O)NC(=O)[C@H](Cc1c[nH]cn1)NC(=O)[C@H](C)NC(=O)[C@H](CC(C)C)NC(=O)[C@H](CCCNC(=N)N)NC(=O)[C@@H](NC(=O)[C@@H](NC(=O)[C@@H](NC(=O)[C@@H]1CSSC[C@H](NC(=O)[C@H](CCCCN)NC(=O)CC[C@H](NC(=O)CCCCCCCCCCCCCCCCCCC(=O)O)C(=O)O)C(=O)N[C@@H](CC(N)=O)C(=O)N[C@@H]([C@@H](C)O)C(=O)N[C@@H](C)C(=O)N[C@@H]([C@@H](C)O)C(=O)N1)[C@@H](C)O)C(C)C)[C@@H](C)CC)C(=O)N[C@@H](Cc1ccc(O)cc1)C(=O)N[C@@H](CCC(N)=O)C(=O)N[C@@H](Cc1ccccc1)C(=O)N[C@H](C(=O)N[C@@H](CC(=O)O)C(=O)N[C@@H](CCCCN)C(=O)N[C@@H](CC(=O)O)C(=O)N[C@@H](CCCCN)C(=O)N[C@@H](CC(=O)O)C(=O)N[C@@H](CC(N)=O)C(=O)N[C@H](C(=O)N[C@@H](C)C(=O)N1CCC[C@H]1C(=O)N1CCC[C@H]1C(=O)N[C@H](C(=O)N[C@@H](CC(N)=O)C(=O)N[C@H](C(=O)NCC(=O)N[C@@H](CO)C(=O)N[C@@H](CC(N)=O)C(=O)NCC(=O)N1C[C@H](O)C[C@H]1C(N)=O)C(C)C)[C@@H](C)O)C(C)C)[C@@H](C)O` [compound 159] ({C20 diacid-γGlu}-KCNTATCTVIRLAHQIYQFTDKDKDNVAPPTNVGSNG[Hyp]-NH2; disulfide 2-7), the EC50 in test [1] was more than 5000 nM; in test [2], 0.048 nM.

Consider `CC[C@H](C)[C@H](NC(=O)[C@H](C)NC(=O)CNC(=O)[C@H](Cc1ccccc1)NC(=O)[C@H](CC(N)=O)NC(=O)[C@H](CC(N)=O)NC(=O)[C@H](CO)NC(=O)[C@H](CO)NC(=O)[C@H](Cc1c[nH]cn1)NC(=O)[C@@H](NC(=O)[C@H](CC(C)C)NC(=O)[C@H](Cc1ccccc1)NC(=O)[C@H](CC(N)=O)NC(=O)[C@H](C)NC(=O)[C@H](CC(C)C)NC(=O)[C@H](CCCNC(=N)N)NC(=O)[C@H](CCC(N)=O)NC(=O)[C@@H](NC(=O)[C@H](C)NC(=O)[C@@H]1CSSC[C@H](NC(=O)[C@@H](N)CCCCN)C(=O)N[C@@H](CC(N)=O)C(=O)N[C@@H]([C@@H](C)O)C(=O)N[C@@H](C)C(=O)N[C@@H]([C@@H](C)O)C(=O)N1)[C@@H](C)O)C(C)C)C(=O)N[C@@H](CC(C)C)C(=O)N1CCC[C@H]1C(=O)N[C@@H](CO)C(=O)N[C@H](C(=O)N[C@@H](CCCCN)C(=O)N[C@H](C(=O)NCC(=O)N1CCC[C@H]1C(=O)N[C@@H](CC(N)=O)C(=O)NCC(=O)N[C@@H](Cc1ccc(O)cc1)C(N)=O)[C@@H](C)CC)[C@@H](C)O` [compound 162] (H-KCNTATCATQRLANFLVHSSNNFGAILPSTKIGPNGY-NH2; disulfide 2-7; N-terminus assumed), for which the EC50 is more than 5000 nM in test [1] and 0.051 nM in test [2].

For the molecule `CC[C@H](C)[C@H](NC(=O)[C@H](C)NC(=O)CNC(=O)[C@H](Cc1ccccc1)NC(=O)[C@H](CC(N)=O)NC(=O)[C@H](CC(N)=O)NC(=O)[C@H](CO)NC(=O)[C@H](CO)NC(=O)[C@H](Cc1c[nH]cn1)NC(=O)[C@@H](NC(=O)[C@H](CC(C)C)NC(=O)[C@H](Cc1ccccc1)NC(=O)[C@H](CC(N)=O)NC(=O)[C@H](C)NC(=O)[C@H](CC(C)C)NC(=O)[C@H](CCCNC(=N)N)NC(=O)[C@H](CCC(N)=O)NC(=O)[C@@H](NC(=O)[C@H](C)NC(=O)[C@@H]1CSSC[C@H](NC(=O)[C@@H](N)CCCCN)C(=O)N[C@@H](CC(N)=O)C(=O)N[C@@H]([C@@H](C)O)C(=O)N[C@@H](C)C(=O)N[C@@H]([C@@H](C)O)C(=O)N1)[C@@H](C)O)C(C)C)C(=O)N[C@@H](CC(C)C)C(=O)N1CCC[C@H]1C(=O)N[C@@H](CO)C(=O)N[C@H](C(=O)N[C@@H](CCCCN)C(=O)N[C@H](C(=O)NCC(=O)N[C@@H](CO)C(=O)N[C@@H](CC(N)=O)C(=O)N[C@H](C(=O)N[C@@H](Cc1ccc(O)cc1)C(N)=O)[C@@H](C)O)[C@@H](C)CC)[C@@H](C)O` [compound 180] (H-KCNTATCATQRLANFLVHSSNNFGAILPSTKIGSNTY-NH2; disulfide 2-7; N-terminus assumed), the EC50 in test [1] was more than 5000 nM; in test [2] it was 0.082 nM.

For `CC[C@H](C)[C@H](NC(=O)[C@H](CCC(N)=O)NC(=O)[C@H](Cc1c[nH]cn1)NC(=O)[C@H](C)NC(=O)[C@H](CC(C)C)NC(=O)[C@H](CCCNC(=N)N)NC(=O)[C@H](CCC(N)=O)NC(=O)[C@@H](NC(=O)[C@@H](NC(=O)[C@@H]1CSSC[C@H](NC(=O)[C@H](CCCCN)NC(=O)CC[C@H](NC(=O)CCCCCCCCCCCCCCCCCCC(=O)O)C(=O)O)C(=O)N[C@@H](CC(N)=O)C(=O)N[C@@H]([C@@H](C)O)C(=O)N[C@@H](CC(C)C)C(=O)N[C@@H]([C@@H](C)O)C(=O)N1)[C@@H](C)O)C(C)C)C(=O)N[C@@H](Cc1ccc(O)cc1)C(=O)N[C@@H](CCC(N)=O)C(=O)N[C@@H](Cc1ccccc1)C(=O)N[C@H](C(=O)N[C@@H](CC(=O)O)C(=O)N[C@@H](CCCCN)C(=O)N[C@@H](CC(=O)O)C(=O)N[C@@H](CCCCN)C(=O)N[C@@H](CC(=O)O)C(=O)N[C@@H](CC(N)=O)C(=O)N[C@H](C(=O)N[C@@H](C)C(=O)N1CCC[C@H]1C(=O)N1CCC[C@H]1C(=O)N[C@H](C(=O)N[C@@H](CC(N)=O)C(=O)N[C@H](C(=O)NCC(=O)N[C@@H](CO)C(=O)N[C@@H](CC(N)=O)C(=O)NCC(=O)N1C[C@H](O)C[C@H]1C(N)=O)C(C)C)[C@@H](C)O)C(C)C)[C@@H](C)O` [compound 225] ({C20 diacid-γGlu}-KCNTLTCTVQRLAHQIYQFTDKDKDNVAPPTNVGSNG[Hyp]-NH2; disulfide 2-7), the results for the EC50 in test [1] and in test [2] were more than 5000 nM and 0.186 nM, respectively.

Values taken from patent publication US12139520B2 (priority 2020, dated 2024).
